The values below come from US20110136751A1, “Use of Polyphenols in the Treatment of Cancer” (Green Molecular, priority 2009, published 2011).

In general, pIC50 refers to −log10 of the IC50, conventionally taken in molar units. Low readings indicate a high IC50, high ones a low IC50.

Data set [1] relates to Human melanoma (A375), breast cancer (MCF7), lung cancer (A549), and colon cancer (HT29) cell lines. Nature of the data set: Cell inhibition study (cell counting). The format is cell-based. The following applies: for cell number (relative proliferation index): 0-100 μM, FIGS. 8A through 8D; for pIC50: Homo sapiens, all cell lines (A375, MCF7, A549, HT29). The procedure: Cancer cells (0.2×10^6 cells/well) were seeded in six well-plates and, 24 h later, were treated with PTER or RES ([…]) (ethanol as solvent vehicle was at a conc. of 0.3%). Cell growth was analyzed using the Countess® Automated Cell Counter (Invitrogen). Results were expressed as relative proliferation index±SD (n=4) where control is 100.
The aim of this study was to determine whether pterostilbene causes cytotoxicity in human tumors at concentrations that are reliable under in vivo conditions; and, to identify which death-related molecular mechanisms may be activated by the compound. Human melanoma (A375), breast cancer (MCF7), lung cancer (A549), and colon cancer (HT29) cell lines were used in this set of experiments. Pterostilbene and resveratrol were used in a μM range, between 10 μM (below the IC50 for all cell lines) and 200 μM (an unachievable in vivo concentration). Cell cycle and apoptosis induction were determined by flow cytometry.
Cells from the cancer lines (0.2×10^6 cells/well) were seeded in six well-plates and, 24 h later, were treated with pterostilbene or resveratrol (0-100 μM) (ethanol as solvent vehicle was at a conc. of 0.3%). Cell growth was analyzed using the Countess® Automated Cell Counter (Invitrogen). Results were expressed as relative proliferation index±SD (n=4) where control is 100.

The subject of a further data set is Panc-1. Nature of the data set: IC50 on cell viability, Cell Counting Kit-8. The following applies: Homo sapiens; code 34, Panc-1, Pancreas Carcinoma Epithiloid; cell viability 120 h after administration. The format is cell-based. As to the method:
(§1) A panel of 36 human cell lines were first tested in terms of population doubling time and growth curves to determine the conditions for further assays. The cells were also tested to determine the dose of radiation that produces 50% cell viability (D50). […] Cell viability was determined 120 h after the administration of the compounds using the Cell Counting Kit-8 (Dojindo Molecular Technologies, Inc, Rockville, Md.). In the experiments, 0.1% SDS and 1% DMSO were used as positive and negative controls, respectively. Final concentrations of the compounds used in the experiments are listed below in Table 5: […]

The next data set concerns U-38 MG. In words: IC50 on cell viability, Cell Counting Kit-8. The format is cell-based. The note with it: Homo sapiens; code 13, U-38 MG, Brain Gliblastoma/astrocitoma; cell viability 120 h after administration. As to the method: as §1
(Tetrazolium assays rely on reduction of a dye to a coloured formazan, in cell work by metabolically active cells.)

A further data set concerns MML-1. In words: IC50 on cell viability, Cell Counting Kit-8. The format is cell-based. The note with it: Homo sapiens; code 27, MML-1, Skin Melanoma; cell viability 120 h after administration. The procedure:
as §1

For the next data set, the system named is C32. Nature of the data set: IC50 on cell viability, Cell Counting Kit-8. The format is cell-based. The following applies: Homo sapiens; code 24, C32, Skin Melanoma; cell viability 120 h after administration. As to the method: as §1
Another data set concerns IMR-32. In words: IC50 on cell viability, Cell Counting Kit-8. The note with it: Homo sapiens; code 15, IMR-32, Brain Neuroblastoma; cell viability 120 h after administration. The format is cell-based. The procedure:
as §1

A further data set relates to Panc 10 05. In words: IC50 on cell viability, Cell Counting Kit-8. The data set is classed as cell-based. The note with it: Homo sapiens, Panc1005; code 33, Panc 10 05, Pancreas Adenocarcinoma; cell viability 120 h after administration. The procedure: as §1
For the next data set, the system named is caspase 3. In words: Caspase-3 activity (Apo-ONE Homogeneous Caspase-3 Assay). The data set is classed as cell-based, human. The following applies: within a 24 h-period. As to the method:
Aspase-3 activity was measured with Apo-ONE® Homogeneous Caspase-3 Assay (Promega). The assay was configured for 96 well plates (5000 cells/well). Cells were plated for 24 h. Capase-3/7 activities were evaluated 24 h after polyphenols addition. Fluorescence (a.u.) was expressed as relative index where control is 1. Results are expressed as relative proliferation index±SD (n=3).
The effects of pterostilbene and resveratrol on cell cycle were tested. […] Both DNA synthesis and tubulin polymerization were seriously affected.

In data set [2] the test system is Human melanoma (A375), breast cancer (MCF7), lung cancer (A549), and colon cancer (HT29) cell lines. Nature of the data set: Necrosis induction (LDH released to the extracellular medium). The data set is classed as cell-based. The following applies: with increasing concentration; FIG. 10. As to the method: Necrosis induction was evaluated by measuring lactate dehydrogenase (LDH) activity released to the extracellular medium. Cells were exposed to polyphenols for 24-72 h. Results are expressed as relative LDH activity±SD (n=3) where control is 100.
The tumor cell death induced by pterostilbene appears to be partially independent of caspase activity.
A general note: LDH leaks from cells whose membrane has failed.

Data set [3] has the same test system. In words: Apoptosis induction (flow cytometry). The data set is classed as cell-based. The following applies: with increasing concentration. The procedure: The aim of this study was to determine whether pterostilbene causes cytotoxicity in human tumors at concentrations that are reliable under in vivo conditions; and, to identify which death-related molecular mechanisms may be activated by the compound. Human melanoma (A375), breast cancer (MCF7), lung cancer (A549), and colon cancer (HT29) cell lines were used in this set of experiments. […] Cell cycle and apoptosis induction were determined by flow cytometry. […] The tumor cell death induced by pterostilbene appears to be partially independent of caspase activity.
On the technique in general: A flow cytometer gives signals particle by particle.

The conditions of data set [4]: cited from earlier work.
A further data set relates to HT-29 xenografts. Nature of the data set: HT-29 xenograft growth. The format is in vivo, nu/nu nude mice. The following applies: i.v., 40 mg of t-PTER or QUER/kg×day, single PF. The procedure: Tumor growth was measured during a 30-day period. Tumor volume, one week after inoculation and before PF administration, was of 56+15 mm3. A. […] B. Growth profile of control ([…]) and t-PTER- and QUER (∘) (20 mg of each PF/kg)-treated HT-29-bearing mice. Data are means±S.D. of 18-20 mice per group. The significant test refers, for all groups, to the comparison between PTER and/or QUER and controls (treated with physiological saline) (*P<0.01). For HT-29 cancer cell xenograft experiments, female nu/nu nude mice (ages 6 to 8 weeks; […] Tumor volume was calculated based on two dimensions, measured using calipers, and was expressed in cubic millimeters according to the formula: […] For histological analysis the surgical and xenograft tissue samples were fixed in 4% formaldehyde, paraffin embedded, and stained with hematoxilin & eosin and safran. […] This study was conducted in compliance with international laws and policies (EEC Directive 86/609, OJ L 358. 1, Dec. 12, 1987; and NIH Guide for the Care and Use of Laboratory Animals, NIH Publ. No. 85-23, 1985). X rays were administered using a […] SL75 linear accelerator from Philips. For this purpose each mouse was anesthetized with nembutal (50 mg/kg i.p.), and fixed on a Perspex platform.

pIC50: −log10 of the molar value. Some results are limits rather than exact numbers.

Consider `Oc1ccc(/C=C/c2cc(O)cc(O)c2)cc1` [RI, trans-3,5,4′-trihydroxystilbene, reference compound], for which, in data set [1], the “cell number (relative proliferation index)” value was “reduced cell number in a concentration- and time-dependent manner”. For the same compound, the negative logarithm of the IC50 (pIC50) in data set [1] is < 5.00; in the data set on Panc-1, 4.48; in the data set on U-38 MG it was 5.20; in the data set with MML-1, 4.99; in the data set on C32, 4.73; with IMR-32, 4.37. The compound also gave a pIC50 with Panc 10 05 of 4.62. Further, the “caspase 3 activation” value in the data set with caspase 3 was “no caspase 3 activation was detected”. The “Necrosis (LDH activity released to the extracellular medium)” value in data set [2] was “progressively activated”. Besides, the apoptosis entry in data set [3] was “progressively activated”. Also, the “half-life in circulating blood” value in data set [4] (after i.v. administration of 20 mg/kg to e.g. rabbits) is ~14.4 min.

With `COc1cc(/C=C/c2ccc(O)cc2)cc(OC)c1` [t-PTER, trans-3,5-dimethoxy-4′-hydroxystilbene], the “inhibitory effect on human tumor cell growth versus resveratrol” value in [1] was “stronger inhibitory effect”. Also, the “cell number (relative proliferation index)” value in data set [1] was “reduced cell number in a concentration- and time-dependent manner”. Also, the negative logarithm of the IC50 (pIC50) was < 5.00 in data set [1]; 4.30 in the data set with Panc-1; 4.53 with U-38 MG; 4.77 with MML-1; 4.52 with C32; 4.37 in the data set on IMR-32. The same compound gave a pIC50 in the data set with Panc 10 05 of 4.33. The “caspase 3 activation” value in the data set on caspase 3 is reported as “no caspase 3 activation was detected”. Further, in data set [2], the “Necrosis (LDH activity released to the extracellular medium)” value is given as “progressively activated”. In addition, the apoptosis entry in [3] is on record as “progressively activated”. In addition, the “CRC growth inhibition compared with the 20 mg/kg×day dose” value in the data set on HT-29 xenografts is on record as “not significantly different”. In addition, in data set [4] (rabbit, in vivo), the half-life in blood is given as ~77.9 min.

With `O=c1c(O)c(-c2ccc(O)c(O)c2)oc2cc(O)cc(O)c12` [QUER, quercetin], the pIC50 in the data set with Panc-1 is 4.20; with U-38 MG it was 5.32; in the data set on MML-1 it was 4.97; in the data set on C32, 4.66; in the data set on IMR-32 it was 4.70; in the data set with Panc 10 05 it was 4.64. The “CRC growth inhibition compared with the 20 mg/kg×day dose” value in the data set on HT-29 xenografts is given as “not significantly different”.
